Measured values taken from patent publication EP0579833B1, “ETHANOLAMINE DERIVATIVES WITH ANTI-POLLAKIURIA ACTIVITY” (FUJISAWA PHARMACEUTICAL CO., LTD., priority 1991, dated 1992).

Key:
[1] = test system: isolated rat distal colon; test: Effect on isolated rat distal colon (spontaneous contractions, organ bath); format: tissue-based; conditions: spontaneous contractions of distal colon strip from male SD rats, Tyrode solution, 37°C, 0.5 g tension, observed over 30 minutes
Procedure: Male SD rats (l80∼230 g) were used. Animals were fasted for 24 hours prior to experiment. Distal colon was removed immediately after sacrifice and placed in an organ bath containing 25 ml Tyrode solution aerating with 95% O2, 5% CO2 at 37°C. The strip was mounted under 0.5 g tension and spontaneous contractions were recorded isometrically. After the motility was of a uniform size, test compound was added to an organ bath and the contractions were observed over a 30 minutes period. Effect of test compound was calculated by comparing contractions before and after test compound.

[2] = test system: isolated non-pregnant rat uterus; test: Effect on isolated non-pregnant rat uterus (spontaneous contractions, organ bath); set-up: species or system tissue; conditions: spontaneous contractions of uterine horn strip from estradiol-treated female SD rats, Locke solution, 37°C, 1 g tension, observed over 20 minutes
Procedure: Female SD rats (l50∼l80 g) were used. 48 and 24 hours prior to use, rats were given estradiol (ovahormon benzoat : Trademark, Teikoku Hormone Mfg. Co., Ltd.) subcutaneously at a dose of 40 µg/rat to induce oestrus. The animals were killed and uterine horns were removed. Each strip was placed in an organ bath containing 25 ml Locke solution aerating with 95% O2, 5% CO2 at 37°C under l g tension. Contractions were recorded isometrically. After the spontaneous contractions were of a uniform size, test compound was added to organ bath. The motility was observed over a 20 minutes period. Effect of test compound was calculated by comparing contractions before and after test compound.

(1R,1'R,2'R)- and (1R,1'S,2'S)-1-(3-chlorophenyl)-2-[(7-ethoxycarbonylmethoxy-l-hydroxy-l,2,3,4-tetrahydro-2- naphthyl)amino]ethanol hydrochloride [Example 2]
IC50 [1]: 1.9 nM | IC50 [2]: 510 nM
